Among the data in BindingDB's records for doi:10.1016/s0960-894x(02)00455-9 (Fukui Research Institute, 2002) are IC50 values, retold here.

The target of test [1] is T1, Nitric oxide synthase, endothelial (Homo sapiens, UniProt P29474).
T1 sequence (P29474 whole entry): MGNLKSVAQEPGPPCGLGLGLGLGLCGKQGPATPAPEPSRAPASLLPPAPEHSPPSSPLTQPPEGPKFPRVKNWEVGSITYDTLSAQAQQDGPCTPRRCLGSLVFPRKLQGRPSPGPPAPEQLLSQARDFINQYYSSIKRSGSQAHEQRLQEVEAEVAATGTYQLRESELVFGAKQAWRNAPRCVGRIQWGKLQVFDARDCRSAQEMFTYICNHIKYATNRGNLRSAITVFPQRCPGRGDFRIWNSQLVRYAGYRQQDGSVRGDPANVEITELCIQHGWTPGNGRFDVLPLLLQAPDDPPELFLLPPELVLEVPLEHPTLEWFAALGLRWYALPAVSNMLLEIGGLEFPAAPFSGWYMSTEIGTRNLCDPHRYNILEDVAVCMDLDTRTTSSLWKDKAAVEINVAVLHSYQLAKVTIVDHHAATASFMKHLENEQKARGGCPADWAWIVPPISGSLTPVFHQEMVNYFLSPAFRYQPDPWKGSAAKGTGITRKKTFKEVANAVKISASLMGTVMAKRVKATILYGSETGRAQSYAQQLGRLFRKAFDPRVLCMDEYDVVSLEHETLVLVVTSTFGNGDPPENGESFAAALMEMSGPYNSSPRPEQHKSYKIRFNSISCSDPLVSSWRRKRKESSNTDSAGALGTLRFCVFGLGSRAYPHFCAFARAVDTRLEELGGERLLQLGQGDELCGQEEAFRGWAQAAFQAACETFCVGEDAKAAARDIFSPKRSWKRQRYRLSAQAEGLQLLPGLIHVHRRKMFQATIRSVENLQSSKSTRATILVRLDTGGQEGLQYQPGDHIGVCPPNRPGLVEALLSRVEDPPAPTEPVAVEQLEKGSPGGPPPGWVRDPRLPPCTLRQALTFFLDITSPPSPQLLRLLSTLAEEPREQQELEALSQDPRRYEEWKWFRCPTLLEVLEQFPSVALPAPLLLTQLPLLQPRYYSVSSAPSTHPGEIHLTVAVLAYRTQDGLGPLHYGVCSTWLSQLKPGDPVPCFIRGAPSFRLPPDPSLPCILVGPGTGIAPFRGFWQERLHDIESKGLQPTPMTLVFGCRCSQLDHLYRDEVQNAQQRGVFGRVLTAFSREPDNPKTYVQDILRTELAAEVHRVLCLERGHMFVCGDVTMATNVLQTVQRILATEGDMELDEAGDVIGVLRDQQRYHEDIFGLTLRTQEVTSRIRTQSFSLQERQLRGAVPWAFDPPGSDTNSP
The test is described as follows: ChEBML_64984. The source says:
Inhibition of human endothelial Nitric Oxide Synthase expressed in Sf-21 cells

Test [2] has as its target Nitric oxide synthase, inducible (Homo sapiens, UniProt P35228). The test is described as follows: ChEBML_89186. The source says:
Concentration required to inhibit Inducible nitric oxide synthase over expressed in A549 cells

Sequence of Nitric oxide synthase, inducible (P35228 whole entry): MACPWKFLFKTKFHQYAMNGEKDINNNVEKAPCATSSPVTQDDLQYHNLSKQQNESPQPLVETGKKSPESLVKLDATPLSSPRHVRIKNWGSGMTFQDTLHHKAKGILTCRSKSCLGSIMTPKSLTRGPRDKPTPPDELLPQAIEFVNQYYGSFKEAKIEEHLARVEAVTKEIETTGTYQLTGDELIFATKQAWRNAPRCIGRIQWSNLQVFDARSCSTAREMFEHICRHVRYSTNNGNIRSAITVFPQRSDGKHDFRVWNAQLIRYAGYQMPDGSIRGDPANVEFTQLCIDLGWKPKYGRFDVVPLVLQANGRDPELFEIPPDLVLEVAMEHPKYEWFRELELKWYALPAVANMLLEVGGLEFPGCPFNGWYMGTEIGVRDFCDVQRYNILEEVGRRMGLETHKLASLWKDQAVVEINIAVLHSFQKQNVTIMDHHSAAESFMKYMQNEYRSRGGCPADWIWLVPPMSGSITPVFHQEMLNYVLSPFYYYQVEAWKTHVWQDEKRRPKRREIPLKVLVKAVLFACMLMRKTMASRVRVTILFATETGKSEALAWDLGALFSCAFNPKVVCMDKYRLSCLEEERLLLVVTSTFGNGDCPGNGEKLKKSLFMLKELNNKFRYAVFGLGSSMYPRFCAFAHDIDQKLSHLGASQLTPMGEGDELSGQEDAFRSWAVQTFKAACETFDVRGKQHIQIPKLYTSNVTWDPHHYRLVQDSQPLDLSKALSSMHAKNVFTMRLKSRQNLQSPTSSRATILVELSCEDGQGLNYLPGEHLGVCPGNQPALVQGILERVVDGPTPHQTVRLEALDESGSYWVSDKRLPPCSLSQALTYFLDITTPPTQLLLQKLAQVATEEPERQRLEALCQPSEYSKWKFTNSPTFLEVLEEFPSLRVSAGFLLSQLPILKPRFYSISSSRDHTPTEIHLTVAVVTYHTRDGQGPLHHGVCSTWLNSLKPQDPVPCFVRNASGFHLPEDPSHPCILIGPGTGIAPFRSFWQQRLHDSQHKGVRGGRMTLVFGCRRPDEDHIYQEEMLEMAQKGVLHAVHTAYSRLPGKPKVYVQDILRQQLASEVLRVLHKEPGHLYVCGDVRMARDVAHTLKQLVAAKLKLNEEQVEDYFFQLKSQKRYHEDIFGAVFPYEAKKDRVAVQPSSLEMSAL

In general, IC50 refers to the point on the concentration scale where inhibition reaches its midpoint. Consider `CC1=CC(N)=NCC1`, for which the IC50 in test [1] is 0.44 µM; in test [2], 0.7 µM.
